In patent US20250250269A1, “HETEROCYCLIC GLP-1 AGONISTS” (Gasherbrum Bio, Inc., priority 2022, published 2025):

biological target: T1, GLP-1 Receptor (Homo sapiens, UniProt P43220); assay: GLP-1R agonist cAMP stimulation assay (HEK293/GLP1R/CRE-LUC cells, Cisbio cAMP dynamic 2 kit); type: cell-based; details: HEK293/CRE-Luc cells stably expressing the GLP-1 Receptor, 30 min at 37° C.
T1 construct: host or cells: HEK293/CRE-Luc (HEK293/GLP1R/CRE-LUC)
How it was run: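 HEK293 CRE-Luc cells stably expressing GLP-1R (1000 cells/well) treated with compounds in ½-log dilution for 30 min at 37 °C in DPBS with 0.5 mM IBMX and 0.1% BSA. cAMP quantified by HTRF (cAMP-d2/anti-cAMP cryptate, 1 h, room temperature), fluorescence read at 665 and 615 nm.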

T1 sequence (P43220 24-463, species assumed): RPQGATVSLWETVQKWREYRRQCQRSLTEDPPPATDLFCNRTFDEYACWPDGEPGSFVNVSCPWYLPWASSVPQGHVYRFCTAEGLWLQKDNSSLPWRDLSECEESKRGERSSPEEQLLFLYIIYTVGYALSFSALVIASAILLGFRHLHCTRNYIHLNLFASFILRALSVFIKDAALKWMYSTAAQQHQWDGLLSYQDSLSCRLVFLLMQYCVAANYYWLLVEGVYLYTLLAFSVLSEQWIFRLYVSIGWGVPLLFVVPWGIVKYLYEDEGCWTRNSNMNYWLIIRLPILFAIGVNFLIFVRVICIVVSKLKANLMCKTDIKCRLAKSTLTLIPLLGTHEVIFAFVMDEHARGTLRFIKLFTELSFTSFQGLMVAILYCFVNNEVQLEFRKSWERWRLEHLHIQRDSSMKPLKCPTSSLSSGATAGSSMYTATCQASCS

SMILES | EC50 [nM]
FC(F)(F)c1nnc(-c2cc3nc(CN4CCC(c5cccc(OCc6nc7ccccc7s6)n5)CC4)n(C[C@@H]4CCO4)c3cn2)[nH]1 [Compound 20, (S)-2-(((6-(1-((3-(oxetan-2-ylmethyl)-6-(5-(trifluoromethyl)-4H-1,2,4-triazol-3-yl)-3H-imidazo[4,5-c]pyridin-2-yl)methyl)piperidin-4-yl)pyridin-2-yl)oxy)methyl)benzo[d]thiazole] | < 1
Cc1ccc(COc2cccc(C3CCN(Cc4nc5cc(-c6nnc(C(F)(F)F)[nH]6)ncc5n4C[C@@H]4CCO4)CC3)n2)nc1OC(F)F [Compound 12, (S)-2-((4-(6-((6-(difluoromethoxy)-5-methylpyridin-2-yl)methoxy)pyridin-2-yl)piperidin-1-yl)methyl)-3-(oxetan-2-ylmethyl)-6-(5-(trifluoromethyl)-4H-1,2,4-triazol-3-yl)-3H-imidazo[4,5-c]pyridine] | < 1
O=C(O)c1cc2nc(CN3CC=C(c4cccc(OCc5ccc(Cl)cc5F)n4)CC3)n(C[C@@H]3CCO3)c2cn1 [Compound 29, (S)-2-((6-((4-chloro-2-fluorobenzyl)oxy)-3′,6′-dihydro-[2,4′-bipyridin]-1′(2′H)-yl)methyl)-3-(oxetan-2-ylmethyl)-3H-imidazo[4,5-c]pyridine-6-carboxylic acid] | < 1
Fc1cc(Cl)ccc1COc1nc(C2CCN(Cc3nc4cc(-c5nnc(C(F)(F)F)[nH]5)ncc4n3C[C@@H]3CCO3)CC2)c(F)cc1F [Compound 49, 2-[(4-chloro-2-fluorophenyl)methoxy]-3,5-difluoro-6-{1-[(3-{[(2S)-oxetan-2-yl]methyl}-6-[5-(trifluoromethyl)-4H-1,2,4-triazol-3-yl]-3H-imidazo[4,5-c]pyridin-2-yl)methyl]piperidin-4-yl}pyridine] | < 1
C[C@]1(c2ccc(Cl)cc2F)Oc2cccc(C3=CCN(Cc4nc5cc(-c6nnc(C(F)(F)F)[nH]6)nnc5n4C[C@@H]4CCO4)CC3)c2O1 [Compound 46, 6-((4-((S)-2-(4-chloro-2-fluorophenyl)-2-methylbenzo[d][1,3]dioxol-4-yl)-3,6-dihydropyridin-1(2H)-yl)methyl)-7-(((S)-oxetan-2-yl)methyl)-3-(5-(trifluoromethyl)-4H-1,2,4-triazol-3-yl)-7H-imidazo[4,5-c]pyridazine] | < 1
CC1(c2ccc(F)cc2F)Oc2cccc(C3CCN(Cc4nc5cc(-c6nnc(C(F)(F)F)[nH]6)cnc5n4C[C@@H]4CCO4)CC3)c2O1 (stereo partly drawn) [Compound 53, 4-[2-(2,4-difluorophenyl)-2-methyl-2H-1,3-benzodioxol-4-yl]-1-[(3-{[(2S)-oxetan-2-yl]methyl}-6-[5-(trifluoromethyl)-4H-1,2,4-triazol-3-yl]-3H-imidazo[4,5-b]pyridin-2-yl)methyl]piperidine] | < 1
Cc1c(F)ccc(COc2cccc(C3CCN(Cc4nc5cc(-c6nnc(C(F)(F)F)[nH]6)ncc5n4C[C@@H]4CCO4)CC3)n2)c1F [Compound 5, 2-[(2,4-difluoro-3-methylphenyl)methoxy]-6-{1-[(3-{[(2S)-oxetan-2-yl]methyl}-6-[5-(trifluoromethyl)-4H-1,2,4-triazol-3-yl]-3H-imidazo[4,5-c]pyridin-2-yl)methyl]piperidin-4-yl}pyridine] | < 1
COc1c(F)ccc(COc2cccc(C3CCN(Cc4nc5cc(-c6nnc(C(F)(F)F)[nH]6)ncc5n4C[C@@H]4CCO4)CC3)n2)c1F [Compound 3, (S)-2-((4-(6-((2,4-difluoro-3-methoxybenzyl)oxy)pyridin-2-yl)piperidin-1-yl)methyl)-3-(oxetan-2-ylmethyl)-6-(5-(trifluoromethyl)-4H-1,2,4-triazol-3-yl)-3H-imidazo[4,5-c]pyridine] | < 1
O=C(O)c1cc2nc(CN3CC=C(c4ccc(F)c(OCc5ccc(Cl)cc5F)c4)CC3)n(C[C@@H]3CCO3)c2cn1 [Compound 30, (S)-2-((4-(3-((4-chloro-2-fluorobenzyl)oxy)-4-fluorophenyl)-3,6-dihydropyridin-1(2H)-yl)methyl)-3-(oxetan-2-ylmethyl)-3H-imidazo[4,5-c]pyridine-6-carboxylic acid] | 1 to 100
